According to patent US10377753B2, “Substituted 4-azaindoles and their use as GluN2B receptor modulators” (Janssen Pharmaceutica NV, priority 2015, dated 2019):

target: cloned human NR1/NR2B ion channels (Homo sapiens (Human), UniProt Q05586+Q13224); assay: HNR2BC: effects of test articles on cloned human NR1/NR2B ion channels expressed in mammalian cells (FLIPR calcium flux); format: cell-based; conditions: cloned human NR1/NR2B ion channels, Table 5
Outline: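 Compounds were added to dye-loaded cells for 5 min with fluorescence monitored for agonism, followed by co-agonists (glutamate ~EC80, glycine 10 μM saturating) for 5 min. Cells stably expressed inducible human NR1/NR2B, and the buffer was pH 7.4. The FLIPR Ca2+ flux signal was normalized against control wells.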

Chain of cloned human NR1/NR2B ion channels (Q13224 27-1484, other chains not shown): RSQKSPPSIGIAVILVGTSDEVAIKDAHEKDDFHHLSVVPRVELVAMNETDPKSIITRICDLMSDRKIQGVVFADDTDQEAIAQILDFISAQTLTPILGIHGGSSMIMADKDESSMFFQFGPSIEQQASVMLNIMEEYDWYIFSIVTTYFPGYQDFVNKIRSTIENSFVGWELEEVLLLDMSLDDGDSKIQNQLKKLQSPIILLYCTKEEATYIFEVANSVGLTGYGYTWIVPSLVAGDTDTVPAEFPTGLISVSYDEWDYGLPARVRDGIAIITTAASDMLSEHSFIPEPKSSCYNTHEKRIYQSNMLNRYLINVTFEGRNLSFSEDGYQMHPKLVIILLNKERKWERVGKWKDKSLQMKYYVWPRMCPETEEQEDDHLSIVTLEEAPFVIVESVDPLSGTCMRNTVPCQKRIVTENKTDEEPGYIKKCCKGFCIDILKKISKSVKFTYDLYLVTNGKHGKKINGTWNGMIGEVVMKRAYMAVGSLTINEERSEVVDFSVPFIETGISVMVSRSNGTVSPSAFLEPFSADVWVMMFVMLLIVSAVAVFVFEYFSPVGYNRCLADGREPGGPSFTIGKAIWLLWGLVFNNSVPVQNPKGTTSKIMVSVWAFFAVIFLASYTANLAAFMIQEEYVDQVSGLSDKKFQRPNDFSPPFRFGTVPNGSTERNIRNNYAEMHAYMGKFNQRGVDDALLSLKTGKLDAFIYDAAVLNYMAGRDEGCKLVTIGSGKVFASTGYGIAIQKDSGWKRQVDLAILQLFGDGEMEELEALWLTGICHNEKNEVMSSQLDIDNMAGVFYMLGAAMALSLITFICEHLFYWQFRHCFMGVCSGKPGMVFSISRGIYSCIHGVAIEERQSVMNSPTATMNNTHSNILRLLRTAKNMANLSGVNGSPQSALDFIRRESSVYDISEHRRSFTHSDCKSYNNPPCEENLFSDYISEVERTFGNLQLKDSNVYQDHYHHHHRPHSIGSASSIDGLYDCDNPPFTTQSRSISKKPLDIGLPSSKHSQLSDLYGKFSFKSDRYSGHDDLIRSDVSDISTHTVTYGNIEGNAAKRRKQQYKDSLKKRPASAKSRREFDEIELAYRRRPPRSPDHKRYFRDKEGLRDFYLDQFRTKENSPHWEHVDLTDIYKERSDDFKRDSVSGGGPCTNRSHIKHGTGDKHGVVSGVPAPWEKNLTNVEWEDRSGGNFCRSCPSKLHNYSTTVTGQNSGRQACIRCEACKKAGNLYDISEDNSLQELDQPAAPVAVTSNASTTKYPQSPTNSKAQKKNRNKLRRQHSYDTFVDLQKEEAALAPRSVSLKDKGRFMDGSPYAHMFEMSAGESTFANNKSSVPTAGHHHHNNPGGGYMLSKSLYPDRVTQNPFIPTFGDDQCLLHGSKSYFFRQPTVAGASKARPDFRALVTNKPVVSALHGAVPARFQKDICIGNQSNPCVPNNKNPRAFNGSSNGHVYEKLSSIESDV

| SMILES | IC50 [nM] |
| --- | --- |
| Cc1cn(CC(=O)N(C)C)c2cc(-c3ccccc3)cnc12 [Example 576, N,N-Dimethyl-2-(3-methyl-6-phenyl-pyrrolo[3,2-b]pyridin-1-yl)acetamide] | 100 |
| CCN(C)C(=O)Cn1cc(C)c2ncc(-c3ccccc3)cc21 [Example 577, N-Ethyl-N-methyl-2-(3-methyl-6-phenyl-pyrrolo[3,2-b]pyridin-1-yl)acetamide] | 200 |
| Cc1cn(CC(=O)N2CC(F)C2)c2cc(-c3ccccc3)cnc12 [Example 578, 1-(3-Fluoroazetidin-1-yl)-2-(3-methyl-6-phenyl-pyrrolo[3,2-b]pyridin-1-yl)ethanone] | 126 |
| Cc1cn(CC(=O)N2CC(F)(F)C2)c2cc(-c3ccccc3)cnc12 [Example 579, 1-(3,3-Difluoroazetidin-1-yl)-2-(3-methyl-6-phenyl-pyrrolo[3,2-b]pyridin-1-yl)ethanone] | 63.1 |
| Cc1cc(-c2cnc3c(C)cn(CC(=O)N4CC(F)C4)c3c2)ccc1F [Example 580, 1-(3-Fluoroazetidin-1-yl)-2-[6-(4-fluoro-3-methyl-phenyl)-3-methyl-pyrrolo[3,2-b]pyridin-1-yl]ethanone] | 79.4 |
| Cc1cccc(-c2cnc3c(C)cn(CC(=O)N4CCC4)c3c2)c1 [Example 581, 1-(Azetidin-1-yl)-2-[3-methyl-6-(m-tolyl)pyrrolo[3,2-b]pyridin-1-yl]ethanone] | 79.4 |
| Cc1cn(CC(=O)N2CCC2)c2cc(-c3ccc(F)c(F)c3F)cnc12 [Example 582, 1-(Azetidin-1-yl)-2-[3-methyl-6-(2,3,4-trifluorophenyl)pyrrolo[3,2-b]pyridin-1-yl]ethanone] | 39.8 |
| Cc1cn(CC(=O)N(C)C)c2cc(-c3ccc(F)c(F)c3F)cnc12 [Example 583, N,N-Dimethyl-2-[3-methyl-6-(2,3,4-trifluorophenyl)pyrrolo[3,2-b]pyridin-1-yl]acetamide] | 126 |
| CCN(C)C(=O)Cn1cc(C)c2ncc(-c3ccc(F)c(F)c3F)cc21 [Example 584, N-Ethyl-N-methyl-2-[3-methyl-6-(2,3,4-trifluorophenyl)pyrrolo[3,2-b]pyridin-1-yl]acetamide] | 398 |
| Cc1cn(CC(=O)N2CCC2)c2cc(-c3cccc(C(F)(F)F)c3F)cnc12 [Example 585, 1-(Azetidin-1-yl)-2-[6-[2-fluoro-3-(trifluoromethyl)phenyl]-3-methyl-pyrrolo[3,2-b]pyridin-1-yl]ethanone] | 251 |
| Cc1cn(CC(=O)N(C)C)c2cc(-c3cccc(C(F)(F)F)c3F)cnc12 [Example 586, 2-[6-[2-Fluoro-3-(trifluoromethyl)phenyl]-3-methyl-pyrrolo[3,2-b]pyridin-1-yl]-N,N-dimethyl-acetamide] | 126 |
| CCN(C)C(=O)Cn1cc(C)c2ncc(-c3cccc(C(F)(F)F)c3F)cc21 [Example 587, N-Ethyl-2-[6-[2-fluoro-3-(trifluoromethyl)phenyl]-3-methyl-pyrrolo[3,2-b]pyridin-1-yl]-N-methyl-acetamide] | 251 |
| Cc1cn(CC(=O)N2CC(F)C2)c2cc(-c3ccc(F)c(F)c3F)cnc12 [Example 588, 1-(3-Fluoroazetidin-1-yl)-2-[3-methyl-6-(2,3,4-trifluorophenyl)pyrrolo[3,2-b]pyridin-1-yl]ethanone] | 631 |
| Cc1cn(CC(=O)N2CC(F)C2)c2cc(-c3cccc(C(F)(F)F)c3F)cnc12 [Example 589, 1-(3-Fluoroazetidin-1-yl)-2-[6-[2-fluoro-3-(trifluoromethyl)phenyl]-3-methyl-pyrrolo[3,2-b]pyridin-1-yl]ethanone] | 126 |
| Cc1cn(CC(=O)N2CCCC2)c2cc(-c3cccc(C(F)(F)F)c3F)cnc12 [Example 590, 2-[6-[2-Fluoro-3-(trifluoromethyl)phenyl]-3-methyl-pyrrolo[3,2-b]pyridin-1-yl]-1-pyrrolidin-1-yl-ethanone] | 316 |
| Cc1cn(CC(=O)N2CCCC2)c2cc(-c3ccc(F)c(F)c3F)cnc12 [Example 591, 2-[3-Methyl-6-(2,3,4-trifluorophenyl)pyrrolo[3,2-b]pyridin-1-yl]-1-pyrrolidin-1-yl-ethanone] | 126 |
| Cc1cn(CC(=O)N2CCC2)c2cc(-c3ccccc3F)cnc12 [Example 592, 1-(Azetidin-1-yl)-2-[6-(2-fluorophenyl)-3-methyl-pyrrolo[3,2-b]pyridin-1-yl]ethanone] | 126 |
| Cc1cn(CC(=O)N(C)C)c2cc(-c3ccccc3F)cnc12 [Example 593, 2-[6-(2-Fluorophenyl)-3-methyl-pyrrolo[3,2-b]pyridin-1-yl]-N,N-dimethyl-acetamide] | 251 |
| CCN(C)C(=O)Cn1cc(C)c2ncc(-c3ccccc3F)cc21 [Example 594, N-Ethyl-2-[6-(2-fluorophenyl)-3-methyl-pyrrolo[3,2-b]pyridin-1-yl]-N-methyl-acetamide] | 794 |
| Cc1cn(CC(=O)N2CC(F)(F)C2)c2cc(-c3cccc(C(F)(F)F)c3F)cnc12 [Example 595, 1-(3,3-Difluoroazetidin-1-yl)-2-[6-[2-fluoro-3-(trifluoromethyl)phenyl]-3-methyl-pyrrolo[3,2-b]pyridin-1-yl]ethanone] | 251 |

| SMILES | IC50 [nM] |
| --- | --- |
| Cc1cn(CC(=O)N2CC(F)(F)C2)c2cc(-c3ccc(F)c(F)c3F)cnc12 [Example 596, 1-(3,3-Difluoroazetidin-1-yl)-2-[3-methyl-6-(2,3,4-trifluorophenyl)pyrrolo[3,2-b]pyridin-1-yl]ethanone] | 50.1 |
| Cc1cn(CC(=O)N2CC(F)(F)C2)c2cc(-c3ccccc3F)cnc12 [Example 597, 1-(3,3-Difluoroazetidin-1-yl)-2-[6-(2-fluorophenyl)-3-methyl-pyrrolo[3,2-b]pyridin-1-yl]ethanone] | 316 |
| Cc1cn(CC(=O)N2CC(F)C2)c2cc(-c3cc(F)c(F)c(F)c3)cnc12 [Example 598, 1-(3-Fluoroazetidin-1-yl)-2-[3-methyl-6-(3,4,5-trifluorophenyl)pyrrolo[3,2-b]pyridin-1-yl]ethanone] | 39.8 |
| Cc1cc(-c2cnc3c(Cl)cn(CC(=O)N(C)C)c3c2)c(C)s1 [Example 599, 2-[3-Chloro-6-(2,5-dimethyl-3-thienyl)pyrrolo[3,2-b]pyridin-1-yl]-N,N-dimethyl-acetamide] | 100 |
| CN(C)C(=O)Cn1cc(Cl)c2ncc(-c3cccc(C(F)(F)F)c3)cc21 [Example 600, 2-[3-Chloro-6-[3-(trifluoromethyl)phenyl]pyrrolo[3,2-b]pyridin-1-yl]-N,N-dimethyl-acetamide] | 79.4 |
| CN(C)C(=O)Cn1cc(Cl)c2ncc(-c3cccc(C(F)(F)F)n3)cc21 [Example 601, 2-[3-Chloro-6-[6-(trifluoromethyl)-2-pyridyl]pyrrolo[3,2-b]pyridin-1-yl]-N,N-dimethyl-acetamide] | 126 |
| Cc1cc(-c2cnc3c(Cl)cn(CC(=O)N(C)C)c3c2)sc1Cl [Example 602, 2-[3-Chloro-6-(5-chloro-4-methyl-2-thienyl)pyrrolo[3,2-b]pyridin-1-yl]-N,N-dimethyl-acetamide] | 10 |
| CN(C)C(=O)Cn1cc(Cl)c2ncc(-c3ccc(C(F)(F)F)s3)cc21 [Example 603, 2-[3-Chloro-6-[5-(trifluoromethyl)-2-thienyl]pyrrolo[3,2-b]pyridin-1-yl]-N,N-dimethyl-acetamide] | 63.1 |
| CN(C)C(=O)Cn1ccc2ncc(-c3cc4ccccc4s3)cc21 [Example 604, 2-[6-(Benzothiophen-2-yl)pyrrolo[3,2-b]pyridin-1-yl]-N,N-dimethyl-acetamide] | 200 |
| CN(C)C(=O)Cn1cc(F)c2ncc(-c3ccc(F)c(C(F)(F)F)c3)cc21 [Example 605, 2-[3-Fluoro-6-[4-fluoro-3-(trifluoromethyl)phenyl]pyrrolo[3,2-b]pyridin-1-yl]-N,N-dimethyl-acetamide] | 63.1 |
| CN(C)C(=O)Cn1cc(F)c2ncc(-c3cccc(Cl)c3F)cc21 [Example 606, 2-[6-(3-Chloro-2-fluoro-phenyl)-3-fluoro-pyrrolo[3,2-b]pyridin-1-yl]-N,N-dimethyl-acetamide] | 63.1 |
| Cc1cccc(-c2cnc3c(F)cn(CC(=O)N4CC(F)C4)c3c2)c1 [Example 607, 1-(3-Fluoroazetidin-1-yl)-2-[3-fluoro-6-(m-tolyl)pyrrolo[3,2-b]pyridin-1-yl]ethanone] | 39.8 |
| O=C(Cn1cc(F)c2ncc(-c3ccc(F)c(Cl)c3)cc21)N1CC(F)C1 [Example 608, 2-[6-(3-Chloro-4-fluoro-phenyl)-3-fluoro-pyrrolo[3,2-b]pyridin-1-yl]-1-(3-fluoroazetidin-1-yl)ethanone] | 20 |
| CN(C)C(=O)Cn1cc(C(F)(F)F)c2ncc(-c3cc(F)cc(F)c3)cc21 [Example 611, 2-[6-(3,5-Difluorophenyl)-3-(trifluoromethyl)pyrrolo[3,2-b]pyridin-1-yl]-N,N-dimethyl-acetamide] | 10 |
| FC(F)(F)c1cccc(-c2cnc3c(Cl)cn(Cc4cccnc4)c3c2)c1 [Example 612, 3-Chloro-1-(3-pyridylmethyl)-6-[3-(trifluoromethyl)phenyl]pyrrolo[3,2-b]pyridine] | 31.6 |
| FC(F)(F)c1cccc(-c2cnc3ccn(Cc4cccnn4)c3c2)c1 [Example 613, 1-(Pyridazin-3-ylmethyl)-6-[3-(trifluoromethyl)phenyl]pyrrolo[3,2-b]pyridine] | 2510 |
| Cc1cc(-c2cnc3c(Cl)cn(Cc4cccnn4)c3c2)ccc1F [Example 614, 3-Chloro-6-(4-fluoro-3-methyl-phenyl)-1-(pyridazin-3-ylmethyl)pyrrolo[3,2-b]pyridine] | 31.6 |
| FC(F)(F)c1cccc(-c2cnc3c(Cl)cn(Cc4cccnn4)c3c2)c1 [Example 615, 3-Chloro-1-(pyridazin-3-ylmethyl)-6-[3-(trifluoromethyl)phenyl]pyrrolo[3,2-b]pyridine] | 25.1 |
| Cc1cc(-c2cnc3c(C)cn(CC(=O)N4CCCC4)c3c2)ccc1F [Example 616, 2-[6-(4-Fluoro-3-methyl-phenyl)-3-methyl-pyrrolo[3,2-b]pyridin-1-yl]-1-pyrrolidin-1-yl-ethanone] | 31.6 |
